Source: patent US20230149415A1, “METHODS AND COMPOSITIONS FOR TREATING CANCER” (Engine Biosciences Pte. Ltd., priority 2020, published 2023)

Legend:
[1] = target: T1, PKMYT1 (Homo sapiens, UniProt Q99640); experiment: selective binding assay for PKMYT1; details: in vitro potency
T1 sequence (Q99640 1-499): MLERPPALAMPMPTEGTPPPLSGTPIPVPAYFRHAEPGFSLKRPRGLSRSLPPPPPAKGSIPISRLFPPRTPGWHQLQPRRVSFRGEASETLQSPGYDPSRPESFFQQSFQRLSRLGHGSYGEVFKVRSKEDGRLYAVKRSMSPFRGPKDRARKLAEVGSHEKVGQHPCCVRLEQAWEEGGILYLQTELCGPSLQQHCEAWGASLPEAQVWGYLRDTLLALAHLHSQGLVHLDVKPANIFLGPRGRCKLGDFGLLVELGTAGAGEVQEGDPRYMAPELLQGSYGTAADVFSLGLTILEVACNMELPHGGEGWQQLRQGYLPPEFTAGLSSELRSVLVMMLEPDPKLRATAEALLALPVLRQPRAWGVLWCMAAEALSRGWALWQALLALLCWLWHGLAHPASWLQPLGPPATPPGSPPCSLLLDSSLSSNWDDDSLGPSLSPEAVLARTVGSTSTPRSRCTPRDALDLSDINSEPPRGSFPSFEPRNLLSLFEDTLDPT

[2] = target: Wee1 (Homo sapiens, UniProt P30291); experiment: selective binding assay for Wee1; details: in vitro potency
Wee1, sequence (P30291 whole entry): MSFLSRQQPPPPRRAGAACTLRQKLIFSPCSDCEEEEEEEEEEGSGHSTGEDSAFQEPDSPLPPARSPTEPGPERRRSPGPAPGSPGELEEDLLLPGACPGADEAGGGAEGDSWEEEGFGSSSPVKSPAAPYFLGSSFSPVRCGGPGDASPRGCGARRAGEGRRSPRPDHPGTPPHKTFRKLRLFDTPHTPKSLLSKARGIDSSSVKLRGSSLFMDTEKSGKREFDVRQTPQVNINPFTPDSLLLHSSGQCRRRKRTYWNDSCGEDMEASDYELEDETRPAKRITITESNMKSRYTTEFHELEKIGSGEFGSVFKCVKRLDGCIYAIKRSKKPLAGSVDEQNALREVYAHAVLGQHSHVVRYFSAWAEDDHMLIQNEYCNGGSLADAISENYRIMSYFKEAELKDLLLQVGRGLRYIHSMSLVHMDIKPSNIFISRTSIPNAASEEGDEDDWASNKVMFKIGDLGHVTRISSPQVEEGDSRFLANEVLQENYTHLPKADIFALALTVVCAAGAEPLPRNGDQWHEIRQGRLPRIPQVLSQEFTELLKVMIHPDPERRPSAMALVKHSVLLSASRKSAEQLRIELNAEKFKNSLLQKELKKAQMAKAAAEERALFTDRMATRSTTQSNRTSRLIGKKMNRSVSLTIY

SMILES | IC50 [1] | IC50 [2]
CCN(CC)CCOc1ccc(Nc2ncc3cc(-c4c(Cl)cccc4Cl)c(=O)n(C)c3n2)cc1 [PD0166285, 6-(2,6-dichlorophenyl)-2-((4-(2-(diethylamino)ethoxy)phenyl)amino)-8-methylpyrido[2,3-d]pyrimidin-7(8H)-one] | 8.2 nM | 
Cn1c(=O)c(-c2c(Cl)cccc2Cl)cc2cnc(Nc3ccc(N4CCOCC4)cc3)nc21 [PD173952, 6-(2,6-dichlorophenyl)-8-methyl-2-((4-morpholinophenyl)amino)pyrido[2,3-d]pyrimidin-7(8H)-one] | 46 nM | 5.3 nM
